Experimental data taken from patent publication US20250002487A1, “HETEROCYCLIC COMPOUNDS AND USES THEREOF” (Ventus Therapeutics U.S., Inc., priority 2021, published 2025).

target: human-cGAS (h-cGAS) (Homo sapiens, UniProt Q8N884); experiment: hcGAS Kinase-Glo Assay; assay type: biochemical; details: 40 nM h-cGAS, 100 μM ATP, 100 μM GTP, 25 nM dsDNA, 3 h incubation, read-out: hcGAS potency IC50
Summary of the method: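 IC50 values come from a luminescence-based Kinase-Glo measurement on human cGAS. Conditions follow the Lama et al. 2019 method with minor modifications.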

Chain of human-cGAS (h-cGAS) (Q8N884 whole entry): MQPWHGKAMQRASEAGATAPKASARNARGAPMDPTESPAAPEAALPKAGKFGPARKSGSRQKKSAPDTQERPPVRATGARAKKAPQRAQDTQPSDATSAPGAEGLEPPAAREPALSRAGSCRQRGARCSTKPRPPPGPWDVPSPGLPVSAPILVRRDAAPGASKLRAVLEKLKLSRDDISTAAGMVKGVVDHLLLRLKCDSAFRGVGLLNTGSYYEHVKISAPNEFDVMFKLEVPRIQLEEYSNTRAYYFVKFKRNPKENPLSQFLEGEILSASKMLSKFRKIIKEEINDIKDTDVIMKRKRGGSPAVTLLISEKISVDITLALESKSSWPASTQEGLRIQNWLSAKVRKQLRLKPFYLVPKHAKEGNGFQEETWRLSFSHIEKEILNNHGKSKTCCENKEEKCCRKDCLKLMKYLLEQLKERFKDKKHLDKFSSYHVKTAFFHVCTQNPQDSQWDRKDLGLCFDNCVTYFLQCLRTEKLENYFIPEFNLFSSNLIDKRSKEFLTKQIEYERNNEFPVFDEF

Row | SMILES | IC50 [nM]
1 | CSc1nnc(NC(=O)c2cc(C(C)C)no2)s1 [Compound 82, 3-isopropyl-N-(5-(methylthio)-1,3,4-thiadiazol-2-yl)isoxazole-5-carboxamide] | 500 to 1000
2 | CSc1nnc(NC(=O)c2cc(-c3ccccc3)no2)s1 [Compound 208, N-[5-(methylsulfanyl)-1,3,4-thiadiazol-2-yl]-3-phenyl-1,2-oxazole-5-carboxamide] | 500 to 1000
3 | CSc1nnc(NC(=O)c2nnc(N(C)C(C)c3ccccc3)o2)s1 (stereo not drawn) [Compound 114, 5-[methyl(1-phenylethyl)amino]-N-[5-(methylsulfanyl)-1,3,4-thiadiazol-2-yl]-1,3,4-oxadiazole-2-carboxamide] | 500 to 1000
4 | CSc1nnc(NC(=O)c2cc(-c3cccc(Cl)c3)no2)s1 [Compound 209, 3-(3-chlorophenyl)-N-[5-(methylsulfanyl)-1,3,4-thiadiazol-2-yl]-1,2-oxazole-5-carboxamide] | 500 to 1000
5 | CSc1nnc(NC(=O)c2noc(N3CCC(C)(C)CC3)n2)s1 [Compound 102, 5-(4,4-dimethylpiperidin-1-yl)-N-(5-(methylthio)-1,3,4-thiadiazol-2-yl)-1,2,4-oxadiazole-3-carboxamide] | ≥ 1000
6 | CSc1nnc(NC(=O)c2nnc(Nc3ccccc3)o2)s1 [Compound 257, 5-anilino-N-(5-methylsulfanyl-1,3,4-thiadiazol-2-yl)-1,3,4-oxadiazole-2-carboxamide] | 500 to 1000
7 | CSc1nnc(NC(=O)c2onc3c(CO)cccc23)s1 [Compound 168, 7-(hydroxymethyl)-N-(5-(methylthio)-1,3,4-thiadiazol-2-yl)benzo[c]isoxazole-3-carboxamide] | 500 to 1000
8 | Cc1ccccc1-c1nnc(NC(=O)c2onc3ccccc23)s1 [Compound 27, N-(5-(o-tolyl)-1,3,4-thiadiazol-2-yl)benzo[c]isoxazole-3-carboxamide] | 500 to 1000
9 | CSc1nnc(NC(=O)c2onc(C)c2C)s1 [Compound 242, 3,4-dimethyl-N-(5-methylsulfanyl-1,3,4-thiadiazol-2-yl)isoxazole-5-carboxamide] | 500 to 1000
10 | CSc1nnc(NC(=O)c2cc(-c3cncs3)no2)s1 [Compound 141, N-(5-(methylthio)-1,3,4-thiadiazol-2-yl)-3-(thiazol-5-yl)isoxazole-5-carboxamide] | ≥ 1000
11 | CSc1nnc(NC(=O)c2cn(CCC(C)(C)C)nn2)s1 [Compound 198, 1-(3,3-dimethylbutyl)-N-(5-(methylthio)-1,3,4-thiadiazol-2-yl)-1H-1,2,3-triazole-4-carboxamide] | ≥ 1000
12 | CSc1nnc(NC(=O)c2cc(C3CCCC3)no2)s1 [Compound 85, 3-cyclopentyl-N-(5-(methylthio)-1,3,4-thiadiazol-2-yl)isoxazole-5-carboxamide] | 500 to 1000
13 | CSc1nnc(NC(=O)c2cc(=O)c3cccc(O)c3[nH]2)s1 [Compound 199, 8-hydroxy-N-(5-(methylthio)-1,3,4-thiadiazol-2-yl)-4-oxo-1,4-dihydroquinoline-2-carboxamide] | ≥ 1000
14 | CSc1nnc(NC(=O)c2onc3c2CN(C(=O)OC(C)(C)C)CC3)s1 [Compound 43, tert-butyl 3-((5-(methylthio)-1,3,4-thiadiazol-2-yl)carbamoyl)-6,7-dihydroisoxazolo[4,3-c]pyridine-5(4H)-carboxylate] | ≥ 1000
15 | CSc1nnc(NC(=O)c2cn(Cc3ccccc3)nn2)s1 [Compound 42, 1-benzyl-N-(5-(methylthio)-1,3,4-thiadiazol-2-yl)-1H-1,2,3-triazole-4-carboxamide] | ≥ 1000
16 | CSc1nnc(NC(=O)c2onc3ccc(Oc4ccccc4)cc23)s1 [Compound 165, N-(5-(methylthio)-1,3,4-thiadiazol-2-yl)-5-phenoxybenzo[c]isoxazole-3-carboxamide] | 500 to 1000
17 | O=C(Nc1nnc(-c2ccccc2)s1)c1onc2ccccc12 [Compound 19, N-(5-phenyl-1,3,4-thiadiazol-2-yl)benzo[c]isoxazole-3-carboxamide] | ≥ 1000
18 | CSc1nnc(NC(=O)c2onc3c2CCCC3)s1 [Compound 67, N-(5-(methylthio)-1,3,4-thiadiazol-2-yl)-4,5,6,7-tetrahydrobenzo[c]isoxazole-3-carboxamide] | 500 to 1000
19 | Cc1ccc(-c2nnc(NC(=O)c3onc4ccccc34)s2)cc1 [Compound 29, N-(5-(p-tolyl)-1,3,4-thiadiazol-2-yl)benzo[c]isoxazole-3-carboxamide] | ≥ 1000
20 | CSc1nnc(NC(=O)c2onc3c2ccc2cnccc23)s1 [Compound 273, N-(5-(methylthio)-1,3,4-thiadiazol-2-yl)isoxazolo[3,4-f]isoquinoline-3-carboxamide] | ≥ 1000
21 | CN(C)c1nnc(NC(=O)c2onc3c2ccc2cccnc23)s1 [Compound 14, N-(5-(dimethylamino)-1,3,4-thiadiazol-2-yl)isoxazolo[4,3-h]quinoline-3-carboxamide] | ≥ 1000
22 | CSc1nnc(NC(=O)c2onc3ccc(Cc4ccccc4)cc23)s1 [Compound 159, 5-Benzyl-N-(5-(methylthio)-1,3,4-thiadiazol-2-yl)benzo[c]isoxazole-3-carboxamide] | 500 to 1000
23 | CSc1nnc(NC(=O)c2cc(-c3cccc4c3ncn4C)cc(=O)o2)s1 [Compound 274, 4-(1-methyl-1H-benzo[d]imidazol-4-yl)-N-(5-(methylthio)-1,3,4-thiadiazol-2-yl)-2-oxo-2H-pyran-6-carboxamide] | 100 to 500
24 | Cc1c(-c2cc(C(=O)Nc3nnc(-c4ccccc4Cl)s3)on2)cnn1C [Compound 53, N-(5-(2-chlorophenyl)-1,3,4-thiadiazol-2-yl)-3-(1,5-dimethyl-1H-pyrazol-4-yl)isoxazole-5-carboxamide] | 100 to 500
25 | COc1ccc(Cc2ccc3noc(C(=O)Nc4nnc(SC)s4)c3c2)cc1 [Compound 160, 5-(4-Methoxybenzyl)-N-(5-(methylthio)-1,3,4-thiadiazol-2-yl)benzo[c]isoxazole-3-carboxamide] | 500 to 1000

Next, values leading:

Row | IC50 [nM] | SMILES
26 | 100 to 500 | CSc1nnc(NC(=O)c2cc(-c3ccccc3)c(C)c(=O)o2)s1 [Compound 203, 3-methyl-N-(5-(methylthio)-1,3,4-thiadiazol-2-yl)-2-oxo-4-phenyl-2H-pyran-6-carboxamide]
27 | 100 to 500 | CSc1nnc(NC(=O)c2cc(-c3ccccc3F)cc(=O)o2)s1 [Compound 237, 4-(2-fluorophenyl)-N-(5-methylsulfanyl-1,3,4-thiadiazol-2-yl)-6-oxo-pyran-2-carboxamide]
28 | 100 to 500 | N#Cc1nnc(NC(=O)c2onc3c2ccc2cccnc23)s1 [Compound 9, N-(5-cyano-1,3,4-thiadiazol-2-yl)isoxazolo[4,3-h]quinoline-3-carboxamide]
29 | 100 to 500 | CSc1nnc(NC(=O)c2cc(-c3cccc(C)c3)cc(=O)o2)s1 [Compound 249, N-(5-methylsulfanyl-1,3,4-thiadiazol-2-yl)-4-(m-tolyl)-6-oxo-pyran-2-carboxamide]
30 | 100 to 500 | COCCOc1cc(C(=O)Nc2nnc(-c3ccccc3Cl)s2)on1 [Compound 175, N-(5-(2-chlorophenyl)-1,3,4-thiadiazol-2-yl)-3-(2-methoxyethoxy)isoxazole-5-carboxamide]
31 | 100 to 500 | O=C(Nc1nnc(-c2nccs2)s1)c1onc2ccccc12 [Compound 131, N-(5-(thiazol-2-yl)-1,3,4-thiadiazol-2-yl)benzo[c]isoxazole-3-carboxamide]
32 | 100 to 500 | CC(C)c1cc(C(=O)Nc2nnc(-c3ccccc3Cl)s2)on1 [Compound 40, N-(5-(2-chlorophenyl)-1,3,4-thiadiazol-2-yl)-3-isopropylisoxazole-5-carboxamide]
33 | 100 to 500 | O=C(Nc1nnc(-c2ccccc2Cl)s1)c1cc(-c2ccccc2)cc(=O)o1 [Compound 205, N-[5-(2-chlorophenyl)-1,3,4-thiadiazol-2-yl]-6-oxo-4-phenylpyran-2-carboxamide]
34 | 100 to 500 | Cc1ccnc(-c2cc(C(=O)Nc3nnc(-c4ccccc4Cl)s3)on2)n1 [Compound 157, N-(5-(2-Chlorophenyl)-1,3,4-thiadiazol-2-yl)-3-(4-methylpyrimidin-2-yl)isoxazole-5-carboxamide]
35 | 100 to 500 | CSc1nnc(NC(=O)c2cc(-c3ncc4ccccc4n3)no2)s1 [Compound 153, N-(5-(Methylthio)-1,3,4-thiadiazol-2-yl)-3-(quinazolin-2-yl)isoxazole-5-carboxamide]
36 | 100 to 500 | CSc1nnc(NC(=O)c2cc(-c3cccc(=O)[nH]3)cc(=O)o2)s1 [Compound 276, N-(5-(methylthio)-1,3,4-thiadiazol-2-yl)-2-oxo-4-(6-oxo-1,6-dihydropyridin-2-yl)-2H-pyran-6-carboxamide]
37 | 100 to 500 | CSc1nnc(NC(=O)c2cc(-c3cccc4c3cnn4C)cc(=O)o2)s1 [Compound 269, 4-(1-methyl-1H-indazol-4-yl)-N-(5-(methylthio)-1,3,4-thiadiazol-2-yl)-2-oxo-2H-pyran-6-carboxamide]
38 | 100 to 500 | CSc1nnc(NC(=O)c2cc(-c3ccc4cccnc4c3)cc(=O)o2)s1 [Compound 270, N-(5-(methylthio)-1,3,4-thiadiazol-2-yl)-2-oxo-4-(quinolin-7-yl)-2H-pyran-6-carboxamide]
39 | 100 to 500 | CSc1nnc(NC(=O)c2cc(-c3cccc4cccnc34)cc(=O)o2)s1 [Compound 246, N-(5-methylsulfanyl-1,3,4-thiadiazol-2-yl)-6-oxo-4-(8-quinolyl)pyran-2-carboxamide]
40 | 100 to 500 | CSc1nnc(NC(=O)c2nnc(N3CCC[C@@H]3c3ccccc3)o2)s1 [Compound 125, (R)-N-(5-(methylthio)-1,3,4-thiadiazol-2-yl)-5-(2-phenylpyrrolidin-1-yl)-1,3,4-oxadiazole-2-carboxamide]
41 | 100 to 500 | CC(C)(C)OC(=O)Nc1cc(C(=O)Nc2nnc(-c3ccccc3Cl)s2)on1 [Compound 3, tert-butyl (5-((5-(2-chlorophenyl)-1,3,4-thiadiazol-2-yl)carbamoyl)isoxazol-3-yl)carbamate]
42 | 100 to 500 | O=C(Nc1nnc(-c2ccccc2Cl)s1)c1cc(C2CC2)no1 [Compound 39, N-(5-(2-chlorophenyl)-1,3,4-thiadiazol-2-yl)-3-cyclopropylisoxazole-5-carboxamide]
